Laboratory results from US12570655B2, “Cysteine covalent modifiers of AKT1 and uses thereof” (Terremoto Biosciences, Inc., priority 2023, dated 2026).

What was measured:
Assay type in all cases: cell-based
AKT1 E17K = molecular target: T1, AKT1 E17K (Homo sapiens, UniProt P31749, E17K); experiment: Live cell AKT1 E17K target engagement by NanoBRET competitive probe displacement; details: HEK293 cells transfected with kinase-NanoLuciferase fusion, 2 h at 37° C.
T1 construct: expressed in transfected cells; host or cells: HEK293
How it was run: (§1)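 Steps: overnight transfection of HEK293 with kinase-NanoLuc plasmids; addition of compound dilutions and tracer (~EC50); 2 h incubation at 37 °C; substrate plus extracellular luciferase inhibitor; luminescence at 460 and 600 nm. IC50 values came from fitting the BRET ratio to a Hill equation.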

AKT2 = molecular target: T2, AKT2 (Homo sapiens, UniProt P31751); experiment: Live cell AKT2 target engagement by NanoBRET competitive probe displacement; details: HEK293 cells transfected with kinase-NanoLuciferase fusion, 2 h at 37° C.
T2 construct: expressed in transfected cells; host or cells: HEK293
How it was run: as §1

AKT1 WT = molecular target: T3, AKT1 WT (Homo sapiens, UniProt P31749); experiment: Live cell AKT1 WT target engagement by NanoBRET competitive probe displacement; details: HEK293 cells transfected with kinase-NanoLuciferase fusion, 2 h at 37° C.
T3 construct: expressed in transfected cells; host or cells: HEK293
How it was run: as §1

[1] = test system: LAPC4 prostate cancer cells; experiment: Antiproliferative effects in LAPC4 cells (CellTiter Glo); details: Homo sapiens, LAPC4, 72 h, LAPC4 cells (AKT1 E17K allele), read-out: LAPC4 proliferation IC50
How it was run: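 Growth inhibition is gauged by intracellular ATP content, measured with CellTiter Glo 72 h after compound addition to 1,000 seeded cells per well. IC50 derives from a Hill equation fit.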

T3 sequence (P31749 whole entry, the tested form may be a part): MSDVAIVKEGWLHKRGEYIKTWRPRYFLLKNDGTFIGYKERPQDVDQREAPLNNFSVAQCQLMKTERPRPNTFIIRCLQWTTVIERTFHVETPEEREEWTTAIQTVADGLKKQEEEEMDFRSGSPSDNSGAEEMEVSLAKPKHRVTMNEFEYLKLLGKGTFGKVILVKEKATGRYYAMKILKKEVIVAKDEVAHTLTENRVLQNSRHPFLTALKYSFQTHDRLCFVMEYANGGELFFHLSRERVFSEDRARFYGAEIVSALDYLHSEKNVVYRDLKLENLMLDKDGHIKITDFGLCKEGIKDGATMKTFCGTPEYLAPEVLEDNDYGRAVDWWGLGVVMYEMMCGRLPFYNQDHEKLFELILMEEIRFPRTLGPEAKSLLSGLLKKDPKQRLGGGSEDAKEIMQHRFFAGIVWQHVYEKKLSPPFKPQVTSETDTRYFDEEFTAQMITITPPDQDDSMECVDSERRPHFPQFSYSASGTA
T2 sequence (P31751 whole entry, the tested form may be a part): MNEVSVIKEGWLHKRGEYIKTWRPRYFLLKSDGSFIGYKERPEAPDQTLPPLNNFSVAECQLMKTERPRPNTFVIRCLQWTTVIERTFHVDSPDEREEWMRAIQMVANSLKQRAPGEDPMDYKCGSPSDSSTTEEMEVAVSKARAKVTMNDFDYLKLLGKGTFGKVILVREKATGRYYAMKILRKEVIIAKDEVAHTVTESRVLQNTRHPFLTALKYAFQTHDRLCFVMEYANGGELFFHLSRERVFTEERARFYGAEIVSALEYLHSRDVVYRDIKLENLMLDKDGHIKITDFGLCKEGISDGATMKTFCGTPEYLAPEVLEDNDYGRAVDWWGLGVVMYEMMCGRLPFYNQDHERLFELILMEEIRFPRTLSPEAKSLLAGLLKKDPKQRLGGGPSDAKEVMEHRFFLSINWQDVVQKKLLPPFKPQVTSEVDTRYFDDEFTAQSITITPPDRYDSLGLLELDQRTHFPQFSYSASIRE
T1 sequence (P31749 whole entry E17K, the tested form may be a part): as the sequence (P31749 whole entry, the tested form may be a part) above, with E17K counted along it

Row | IC50 (AKT1 E17K) | IC50 (AKT2) | IC50 (AKT1 WT) | IC50 [1] | SMILES
1 | 14.1 nM | 37.9 nM | 12 nM | 238 nM | C=CS(=O)(=O)Nc1ccccc1C(=O)N[C@H]1CCc2cc(-n3c(-c4cccnc4N)nc4ccc(-n5cccn5)nc43)ccc21 [Example 24, (S)-N-(5-(2-(2-aminopyridin-3-yl)-5-(1H-pyrazol-1-yl)-3H-imidazo[4,5-b]pyridin-3-yl)-2,3-dihydro-1H-inden-1-yl)-2-(vinylsulfonamido)benzamide]
2 | > 1000 nM | > 10000 nM | > 1000 nM | > 10000 nM | C=CC(=O)N1CCC[C@@H]1C(=O)N[C@H]1CCc2cc(-n3c(-c4cccnc4N)nc4ccc(-n5cccn5)nc43)ccc21 [Example 25]
3 | > 1000 nM | > 10000 nM | > 1000 nM | 2050 nM | C=CC(=O)N1CCC[C@H]1C(=O)N[C@H]1CCc2cc(-n3c(-c4cccnc4N)nc4ccc(-n5cccn5)nc43)ccc21 [Example 26, (S)-1-acryloyl-N—((S)-5-(2-(2-aminopyridin-3-yl)-5-(1H-pyrazol-1-yl)-3H-imidazo[4,5-b]pyridin-3-yl)-2,3-dihydro-1H-inden-1-yl)pyrrolidine-2-carboxamide]
4 | 81.6 nM | 250 nM | 50.1 nM | 216 nM | C=CC(=O)N1CC(N[C@H]2CCc3cc(-n4c(-c5cccnc5N)nc5ccc(-n6cccn6)nc54)ccc32)C1 [Example 28, (S)-1-(3-((5-(2-(2-aminopyridin-3-yl)-5-(1H-pyrazol-1-yl)-3H-imidazo[4,5-b]pyridin-3-yl)-2,3-dihydro-1H-inden-1-yl)amino)azetidin-1-yl)prop-2-en-1-one]
5 | 81.6 nM | 250 nM | 50.1 nM | 216 nM | C=CC(=O)N1CCC(C(=O)N[C@H]2CCc3cc(-n4c(-c5cccnc5N)nc5ccc(-n6cccn6)nc54)ccc32)CC1 [Example 29, N-[(1S)-5-[2-(2-aminopyridin-3-yl)-5-(pyrazol-1-yl)imidazo[4,5-b]pyridin-3-yl]-2,3-dihydro-1H-inden-1-yl]-1-(prop-2-enoyl)piperidine-4-carboxamide]
6 | > 1000 nM | 4830 nM | 296 nM | 2600 nM | C=CC(=O)N1CCC2(CC1)CC(N[C@H]1CCc3cc(-n4c(-c5cccnc5N)nc5ccc(-n6cccn6)nc54)ccc31)C2 [Example 30, 1-(2-{[(1S)-5-[2-(2-aminopyridin-3-yl)-5-(pyrazol-1-yl)imidazo[4,5-b]pyridin-3-yl]-2,3-dihydro-1H-inden-1-yl]amino}-7-azaspiro[3.5]nonan-7-yl)prop-2-en-1-one]
7 | 12.6 nM | 57.9 nM | 12.9 nM | 30.8 nM | C=CC(=O)N1CC2(CC(N[C@H]3CCc4cc(-n5c(-c6cccnc6N)nc6ccc(-n7cccn7)nc65)ccc43)C2)C1 [Example 31, 1-(6-{[(1S)-5-[2-(2-aminopyridin-3-yl)-5-(pyrazol-1-yl)imidazo[4,5-b]pyridin-3-yl]-2,3-dihydro-1H-inden-1-yl]amino}-2-azaspiro[3.3]heptan-2-yl)prop-2-en-1-one]
8 | 10.1 nM | 41.6 nM | 13.1 nM | 14.1 nM | C=CC(=O)N1CC2(CCC(N[C@H]3CCc4cc(-n5c(-c6cccnc6N)nc6ccc(-n7cccn7)nc65)ccc43)CC2)C1 [Example 32, 1-(7-{[(1S)-5-[2-(2-aminopyridin-3-yl)-5-(pyrazol-1-yl)imidazo[4,5-b]pyridin-3-yl]-2,3-dihydro-1H-inden-1-yl]amino}-2-azaspiro[3.5]nonan-2-yl)prop-2-en-1-one]
9 | 20.7 nM | 152 nM | 21.2 nM | 52 nM | C=CC(=O)N1CCC(N[C@H]2CCc3cc(-n4c(-c5cccnc5N)nc5ccc(-n6nccn6)nc54)ccc32)CC1 [Example 33, 1-(4-{[(1S)-5-[2-(2-aminopyridin-3-yl)-5-(1,2,3-triazol-2-yl)imidazo[4,5-b]pyridin-3-yl]-2,3-dihydro-1H-inden-1-yl]amino}piperidin-1-yl)prop-2-en-1-one]
10 | 194 nM | 1200 nM | 55.1 nM | 398 nM | CN(C)C/C=C/C(=O)N1CCC(N[C@H]2CCc3cc(-n4c(-c5cccnc5N)nc5ccc(-n6cccn6)nc54)ccc32)CC1 [Example 34, (2E)-1-(4-{[(1S)-5-[2-(2-aminopyridin-3-yl)-5-(pyrazol-1-yl)imidazo[4,5-b]pyridin-3-yl]-2,3-dihydro-1H-inden-1-yl]amino}piperidin-1-yl)-4-(dimethylamino)but-2-en-1-one]
11 | > 1000 nM | 2940 nM | 243 nM | 5660 nM | C=C(F)C(=O)Nc1cnn(C)c1C(=O)N[C@H]1CCc2cc(-n3c(-c4cccnc4N)nc4ccc(-n5cccn5)nc43)ccc21 [Example 35, (S)-N-(5-(2-(2-aminopyridin-3-yl)-5-(1H-pyrazol-1-yl)-3H-imidazo[4,5-b]pyridin-3-yl)-2,3-dihydro-1H-inden-1-yl)-4-(2-fluoroacrylamido)-1-methyl-1H-pyrazole-5-carboxamide]
12 | 179 nM | 982 nM | 64.5 nM | 533 nM | C=C(F)C(=O)Nc1cn(C)nc1C(=O)N[C@H]1CCc2cc(-n3c(-c4cccnc4N)nc4ccc(-n5cccn5)nc43)ccc21 [Example 36, (S)-N-(5-(2-(2-aminopyridin-3-yl)-5-(1H-pyrazol-1-yl)-3H-imidazo[4,5-b]pyridin-3-yl)-2,3-dihydro-1H-inden-1-yl)-4-(2-fluoroacrylamido)-1-methyl-1H-pyrazole-3-carboxamide]
13 | 246 nM | 738 nM | 93 nM | 581 nM | Nc1ncccc1-c1nc2ccc(-n3cccn3)nc2n1-c1ccc2c(c1)CC[C@@H]2NC(=O)c1ccccc1NC(=O)C1=CCCC1 [Example 37, (S)-N-(5-(2-(2-aminopyridin-3-yl)-5-(1H-pyrazol-1-yl)-3H-imidazo[4,5-b]pyridin-3-yl)-2,3-dihydro-1H-inden-1-yl)-2-(cyclopent-1-ene-1-carboxamido)benzamide]
14 | 881 nM | 2090 nM | 204 nM | > 10000 nM | C=C(Cl)C(=O)Nc1ccccc1C(=O)N[C@H]1CCc2cc(-n3c(-c4cccnc4N)nc4ccc(-n5cccn5)nc43)ccc21 [Example 38, (S)-N-(5-(2-(2-aminopyridin-3-yl)-5-(1H-pyrazol-1-yl)-3H-imidazo[4,5-b]pyridin-3-yl)-2,3-dihydro-1H-inden-1-yl)-2-(2-chloroacrylamido)benzamide]
15 | 94.9 nM | 94.8 nM | 64.2 nM | 1600 nM | C=CC(=O)Nc1ccccc1CN[C@H]1CCc2cc(-n3c(-c4cccnc4N)nc4ccc(-n5cccn5)nc43)ccc21 [Example 39, N-[2-({[(1S)-5-[2-(2-aminopyridin-3-yl)-5-(pyrazol-1-yl)imidazo[4,5-b]pyridin-3-yl]-2,3-dihydro-1H-inden-1-yl]amino}methyl)phenyl]prop-2-enamide]
16 | 94 nM | 265 nM | 48.1 nM | 948 nM | C=CC(=O)N1CCCc2cccc(C(=O)N[C@H]3CCc4cc(-n5c(-c6cccnc6N)nc6ccc(-n7cccn7)nc65)ccc43)c21 [Example 40, N-[(1S)-5-[2-(2-aminopyridin-3-yl)-5-(pyrazol-1-yl)imidazo[4,5-b]pyridin-3-yl]-2,3-dihydro-1H-inden-1-yl]-1-(prop-2-enoyl)-3,4-dihydro-2H-quinoline-8-carboxamide]
17 | > 1000 nM | 5060 nM | 305 nM | 9840 nM | C=CC(=O)Nc1cnccc1C(=O)N[C@H]1CCc2cc(-n3c(-c4cccnc4N)nc4ccc(-n5cccn5)nc43)ccc21 [Example 41, N-[(1S)-5-[2-(2-aminopyridin-3-yl)-5-(pyrazol-1-yl)imidazo[4,5-b]pyridin-3-yl]-2,3-dihydro-1H-inden-1-yl]-3-(prop-2-enamido)pyridine-4-carboxamide]
18 | 897 nM | 252 nM | 289 nM | 3650 nM | C=C1CCN(c2ccccc2C(=O)N[C@H]2CCc3cc(-n4c(-c5cccnc5N)nc5ccc(-n6cccn6)nc54)ccc32)C1=O [Example 42, (S)-N-(5-(2-(2-aminopyridin-3-yl)-5-(1H-pyrazol-1-yl)-3H-imidazo[4,5-b]pyridin-3-yl)-2,3-dihydro-1H-inden-1-yl)-2-(3-methylene-2-oxopyrrolidin-1-yl)benzamide]
19 | > 1000 nM | > 10000 nM | 317 nM | > 10000 nM | C=CC(=O)Nc1cc(C(F)F)ccc1C(=O)N[C@H]1CCc2cc(-n3c(-c4cccnc4N)nc4ccc(-n5cccn5)nc43)ccc21 [Example 43, (S)-2-acrylamido-N-(5-(2-(2-aminopyridin-3-yl)-5-(1H-pyrazol-1-yl)-3H-imidazo[4,5-b]pyridin-3-yl)-2,3-dihydro-1H-inden-1-yl)-4-(difluoromethyl)benzamide]

Row | SMILES | IC50 (AKT1 E17K) | IC50 (AKT2) | IC50 (AKT1 WT) | IC50 [1]
20 | C=CC(=O)N1C2CCC1CC(N[C@H]1CCc3cc(-n4c(-c5cccnc5N)nc5ccc(-n6cccn6)nc54)ccc31)C2 (stereo partly drawn) [Example 27, 1-(3-(((S)-5-(2-(2-aminopyridin-3-yl)-5-(1H-pyrazol-1-yl)-3H-imidazo[4,5-b]pyridin-3-yl)-2,3-dihydro-1H-inden-1-yl)amino)-8-azabicyclo[3.2.1]octan-8-yl)prop-2-en-1-one] | 107 nM | 192 nM | 39.4 nM | 425 nM
